In patent US20260015341A1, “PI3K INHIBITOR, PREPARATION METHOD THEREFOR, AND USE THEREOF” (HINOVA PHARMACEUTICALS INC., priority 2022, published 2026):

What was measured:
T47D cells = assay: Inhibitory effects on the proliferation of T47D cells (CellTiter-Glo); format: cell-based; details: 7 days
Description: Experimental Example 3: Experiment of Inhibitory Effects on the Proliferation of T47D Cells
T47D cells (ATCC. #HTB-133) were diluted with RPMI 1640 (Gibco #22400-089) containing 10% FBS (Hyclone #SH30084.03), seeded in 96-well plate (Biosharp #BS-MP-96W) at 1000 cells/well, and then cultured for 24 h. Then, gradiently diluted compounds were added (starting at a final concentration of 10 μM, 3-fold dilution, 9 dose concentrations), and the final volume was adjusted to 150 μL/well. The plate was incubated at 37° C. under […] for 7 days. After the cultivation was completed, CellTiter-Glo reagent (Promega #G7573) was added at 75 μL/well, and then the plate was further incubated at 25° C. for 10 min. After that, the chemiluminescence value was read using an instrument.
The results are shown in the T47D IC50 column in Table 2.

[1] = biological target: PI3Kα[WT]/[E542K]/[E545K]/[H1047R]/PI3Kβ/γ/δ; assay: PI3K enzyme activity assay (ADP-Glo); format: biochemical; details: PI3K kinase reaction, isoform not given
Description: Experimental Example 1: PI3Kα[WT]/[E542K]/[E545K]/[H1047R]/PI3Kβ/γ/δ Enzyme Activity Assay
PI3Kα[WT], PI3Kα[E542K], PI3Kα[E545K], PI3Kα[H1047R], PI3Kβ, PI3Kγ and PI3Kδ kinase reaction was performed in 384-well plate (PerkinElmer, #6008280), with a reaction system of 4 μL. PI3Kα[WT] enzyme solution (Promega, #V1721) or PI3Kα[E542K] enzyme solution (CarnaBio, #11-413-20N) or PI3Kα[E545K] enzyme solution (CarnaBio, #11-414-20N) or PI3Kα[H1047R] enzyme solution (Promega, #V1741) or PI3Kβ enzyme solution (Promega, #V1751) or PI3Kγ enzyme solution (ThermoFisher, #PV4786) or PI3Kδ enzyme solution (ThermoFisher, #PV6451) were added to 384-well plate, and then gradiently diluted compounds were added (starting at a final concentration of 10 μM, 3-fold dilution, 10 doses), followed by adding PIP2: 3PS (Promega, #V1701) and ATP solution (Promega, #V915B) to the plate. After incubation at 25° C. for 1 h, ADP-Glo reagent buffer (Promega, #V9102) was added to each well. The plate was sealed and incubated at 25° C. for 40 min, and then 10 μL of ADP-Glo detection buffer (Promega, #V9102) was added to each well. After incubating at 25° C. for 40 min, the chemiluminescence value was read using an instrument.
The experimental results are shown in the ADP Glo IC50 column in Table 2.

MCF-10A cells = assay: Inhibitory effects on the proliferation of MCF-10A cells (CCK8); format: cell-based; details: 6 days
Description: Experimental Example 2: Experiment of Inhibitory Effects on the Proliferation of MCF-10A Cells
MCF-10A cells (Cobioer Bio. #CBP60419MCF) were diluted with complete medium (Cobioer Bio. #CBP60419), seeded in 96-well plate (Corning #3599) at 500 cells/well, and then cultured for 24 h. Then, gradiently diluted compounds were added (starting at a final concentration of 10 μM, 3-fold dilution, 9 dose concentrations), and the final volume was adjusted to 100 μL/well. The plate was incubated at 37° C. under 5% CO2 for 6 days. After the cultivation was completed, CCK8 reagent (Signalway Antibody Bio. #CP002) was added at 10 μL/well, and then the plate was further incubated at 37° C. under 5% CO2 for 2-3 hours. The OD450 nm value was obtained by a microplate reader.
The results are shown in the MCF-OA IC50 column in Table 2.

Structure (SMILES)	IC50 (T47D cells; Homo sapiens, 168 h)	IC50 [1]	IC50 (MCF-10A cells; Homo sapiens, 144 h)	IC50 (MCF-10A cells)	IC50 (T47D cells)
Cc1cc([C@@H](C)Nc2ccccc2C(=O)O)c2nc(N3CCC(C)(C)CC3)n(C)c(=O)c2c1 [Compound 6, (R)-2-((1-(2-(4,4-dimethylpiperidin-1-yl)-3,6-dimethyl-4-oxo-3,4-dihydroquinazolin-8-yl)ethyl)amino)benzoic Acid]	< 1000 nM	< 1000 nM	–	–	–
Cc1cc([C@@H](C)Nc2ccccc2S(N)(=O)=O)c2oc(-c3ccc(F)cc3F)cc(=O)c2c1 [Compound 27, (R)-2-((1-(2-(2,4-difluorophenyl)-6-methyl-4-oxo-4H-chromen-8-yl)ethyl)amino)benzenesulfonamide]	> 5000 nM	> 5000 nM	> 5 µM	–	–
Cc1cc([C@@H](C)Nc2ccccc2NS(C)(=O)=O)c2oc(-c3ccc(F)cc3F)cc(=O)c2c1 [Compound 28]	< 1000 nM	1000 to 5000 nM	> 5 µM	–	–
Cc1cc([C@@H](C)Nc2ccccc2C(=O)O)c2nc(-c3c(F)cccc3F)n(C)c(=O)c2c1 [Compound 37, (R)-2-((1-(2-(2,6-difluorophenyl)-3,6-dimethyl-4-oxo-3,4-dihydroquinazolin-8-yl)ethyl)amino)benzoic Acid]	–	< 1000 nM	–	–	–
Cc1ccc(N[C@H](C)c2cc(C)cc3c(=O)n(C)c(-c4c(F)cccc4F)nc23)c(C(=O)O)c1 [Compound 38]	–	< 1000 nM	–	–	–
Cc1cc([C@@H](C)Nc2ccccc2C(=O)O)c2nc(-c3ccc(F)cc3F)cc(=O)n2c1 [Compound 41, (R)-2-((1-(2-(2,4-difluorophenyl)-7-methyl-4-oxo-4H-pyrido[1,2-a]pyrimidin-9-yl)ethyl)amino)benzoic Acid]	1000 to 5000 nM	< 1000 nM	> 5 µM	–	–
Cc1cc([C@@H](C)Nc2ccnn2C)c2oc(-c3ccc(F)cc3F)cc(=O)c2c1 [Compound 42]	–	1000 to 5000 nM	–	–	–
Cc1cc([C@@H](C)Nc2ccccc2C(=O)O)c2oc(-c3ccc4c(c3)OC(F)(F)O4)cc(=O)c2c1 [Compound 43]	< 1000 nM	< 1000 nM	> 5 µM	–	–
Cc1cc([C@@H](C)Nc2ccc(Cl)nc2C(=O)O)c2nc(-c3ccc(F)cc3F)n(C)c(=O)c2c1 [Compound 44]	< 1000 nM	< 1000 nM	> 5 µM	–	–
Cc1cc([C@@H](C)Nc2ccccc2C(=O)O)c2nc(-c3ccc(F)cc3F)n(C)c(=O)c2c1 [Compound 45]	< 1000 nM	< 1000 nM	> 5 µM	–	–
Cc1cc([C@@H](C)Nc2ccc(Cl)nc2C(=O)O)c2oc(-c3ccc4c(c3)OC(F)(F)O4)cc(=O)c2c1 [Compound 46]	< 1000 nM	< 1000 nM	> 5 µM	–	–
[2H]C([2H])([2H])NC(=O)c1ncccc1N[C@H](C)c1cc(C)cc2c(=O)cc(-c3ccc(F)cc3F)oc12 [Compound 48, (R)-3-((1-(2-(2,4-difluorophenyl)-6-methyl-4-oxo-4H-chromen-8-yl)ethyl)amino)-N-(methyl-d3)picolinamide]	1000 to 5000 nM	1000 to 5000 nM	> 5 µM	–	–
Cc1cc([C@@H](C)Nc2ccc(Cl)nc2C(=O)O)c2nc(-c3c(C)nn(C)c3C)n(C)c(=O)c2c1 [Compound 53]	< 1000 nM	< 1000 nM	1 to 5 µM	–	–
Cc1cc([C@@H](C)Nc2cccc3c2C(=O)NC3=O)c2oc(-c3ccc(F)cc3F)cc(=O)c2c1 [Compound 55]	> 5000 nM	1000 to 5000 nM	> 5 µM	–	–
Cc1cc([C@@H](C)Nc2ccccc2C(O)C(F)(F)F)c2oc(-c3ccc(F)cc3F)cc(=O)c2c1 (stereo partly drawn) [Compound 57, 2-(2,4-difluorophenyl)-6-methyl-8-((1R)-1-((2-(2,2,2-trifluoro-1-hydroxyethyl)phenyl)amino)ethyl)-4H-chromen-4-one]	> 5000 nM	< 1000 nM	> 5 µM	–	–
Cc1cc([C@@H](C)Nc2ccccc2C(=O)O)c2oc(C3CCC(F)(F)CC3)cc(=O)c2c1 [Compound 58, (R)-2-((1-(2-(4,4-difluorocyclohexyl)-6-methyl-4-oxo-4H-chromen-8-yl)ethyl)amino)benzoic Acid]	< 1000 nM	< 1000 nM	> 5 µM	–	–
Cc1cc([C@@H](C)Nc2ccccc2C(=O)O)c2nc(-c3cc(F)ccc3F)n(C)c(=O)c2c1 [Compound 59]	< 1000 nM	< 1000 nM	> 5 µM	–	–

Structure (SMILES)	IC50 (T47D cells; Homo sapiens, 168 h)	IC50 [1]	IC50 (MCF-10A cells; Homo sapiens, 144 h)	IC50 (MCF-10A cells)	IC50 (T47D cells)
Cc1cc([C@@H](C)Nc2ccc(Cl)nc2C(=O)O)c2nc(-c3cc(F)ccc3F)n(C)c(=O)c2c1 [Compound 60]	< 1000 nM	< 1000 nM	> 5 µM	–	–
Cc1cc([C@@H](C)Nc2ccccc2C(=O)O)c2nc(-c3ccc(F)cc3)n(C)c(=O)c2c1 [Compound 61]	< 1000 nM	< 1000 nM	> 5 µM	–	–
Cc1cc([C@@H](C)Nc2ccc[nH]c2=O)c2oc(-c3ccc(F)cc3F)cc(=O)c2c1 [Compound 62]	1000 to 5000 nM	< 1000 nM	> 5 µM	–	–
Cc1cc([C@@H](C)Nc2ccccc2C(=O)O)c2[nH]c(-c3ccc(F)cn3)[n+](C)c(=O)c2c1 [Compound 69]	–	< 1000 nM	–	> 5 µM	< 1000 nM
Cc1cc([C@@H](C)Nc2cccc(F)c2C(=O)O)c2nc(-c3ccc(F)cn3)n(C)c(=O)c2c1 [Compound 70]	1000 to 5000 nM	< 1000 nM	> 5 µM	–	–
Cc1cc([C@@H](C)Nc2cccc(F)c2C(=O)O)c2nc(-c3ccc(C(F)(F)F)cn3)n(C)c(=O)c2c1 [Compound 71]	> 5000 nM	1000 to 5000 nM	> 5 µM	–	–
Cc1cc([C@@H](C)Nc2cccc(F)c2C(=O)O)c2nc(-c3ccc(F)cc3)n(C)c(=O)c2c1 [Compound 72]	1000 to 5000 nM	< 1000 nM	> 5 µM	–	–
C[C@@H](Nc1cccc(F)c1C(=O)O)c1cc(F)cc2c(=O)n(C)c(-c3ccc(F)cn3)nc12 [Compound 73]	1000 to 5000 nM	< 1000 nM	> 5 µM	–	–
C[C@@H](Nc1ccc(F)cc1C(=O)O)c1cc(F)cc2c(=O)n(C)c(-c3ccc(F)cn3)nc12 [Compound 77]	< 1000 nM	< 1000 nM	> 5 µM	–	–
C[C@@H](Nc1ccc(Cl)cc1C(=O)O)c1cc(F)cc2c(=O)n(C)c(-c3ccc(F)cn3)nc12 [Compound 80]	< 1000 nM	< 1000 nM	> 5 µM	–	–
Cc1cc([C@@H](C)Nc2ccsc2C(=O)O)c2nc(-c3ccc(F)cn3)n(C)c(=O)c2c1 [Compound 82]	> 5000 nM	< 1000 nM	> 5 µM	–	–
Cc1cc([C@@H](C)Nc2ccc(Cl)nc2C(=O)O)c2nc(-c3ncc(Cl)cn3)n(C)c(=O)c2c1 [Compound 96]	–	< 1000 nM	–	–	–
C[C@@H](Nc1ccc(Cl)nc1C(=O)O)c1cc(F)cc2c(=O)n(C)c(-c3ncc(Cl)cn3)nc12 [Compound 99]	< 1000 nM	< 1000 nM	> 5 µM	–	–
C[C@@H](Nc1ccc(Cl)nc1C(=O)O)c1cc(F)cc2c(=O)n(C)c(-c3ncccn3)nc12 [Compound 100]	< 1000 nM	< 1000 nM	> 5 µM	–	–
COC(=O)c1nc(Cl)ccc1N[C@H](C)c1cc(C)cc2c(=O)n(C)c(-c3ccncc3)nc12 [Compound 103]	< 1000 nM	< 1000 nM	> 5 µM	–	–
Cc1cc([C@@H](C)NC2CCC(=O)NC2=O)c2oc(-c3ccc(F)cc3F)cc(=O)c2c1 (stereo partly drawn) [Compound 117]	> 5000 nM	> 5000 nM	> 5 µM	–	–
